Experiments:
cells = system: cells; parameters: method as in PMID 32841477; conditions: literature values; cited from earlier work
Mpro = conditions: read-out: IC50 for Mpro; literature data; cited from earlier work
[1] = biological target: SARS-CoV-2 Mpro (Nsp5, 3CLpro) (Severe acute respiratory syndrome coronavirus 2, UniProt P0DTD1); test: biochemical; type: binding; conditions: for Binding to Mpro (MST), in words: no binding curve produced
SARS-CoV-2 protease = biological target: SARS-CoV-2 protease; parameters: method as in PMID 34726479, PMID 35233052, PMID 34653812; conditions: literature; read-out: Inhibition constant (Ki); cited from earlier work

Q: With `CCCCCCNC(=O)n1cc(F)c(=O)[nH]c1=O` [Carmofur] as the compound, how does the EC50 (cells) read?
A: The EC50 was 24000 ± 3000 nM.

Q: Which IC50 (Mpro) does the source give for `CC(C)C[C@H](NC(=O)OCc1ccccc1)C(=O)N[C@@H](CC1CCNC1=O)C(O)S(=O)(=O)O` (stereo partly shown) [GC376] here?
A: Its IC50 is 190 ± 40 nM.

Q: With `Cc1cccc(C)c1OCC(=O)N[C@@H](Cc1ccccc1)[C@@H](O)C[C@H](Cc1ccccc1)NC(=O)[C@H](C(C)C)N1CCCNC1=O` [Lopinavir] as the compound, how does the Kd [1] read?
A: Its Kd is > 200000 nM.

Q: What about the “Binding to Mpro (MST), in words” value [1] of the same compound?
A: The value was “do not bind Mpro effectively”.

Q: For `CC(C)(C)[C@H](NC(=O)C(F)(F)F)C(=O)N1C[C@H]2[C@@H]([C@H]1C(=O)N[C@H](C#N)C[C@@H]1CCNC1=O)C2(C)C` [NMV, Nirmatrelvir], which Ki (SARS-CoV-2 protease) is on record?
A: The Ki was 3 nM.

Q: For `Cc1c(O)cccc1C(=O)N[C@@H](CSc1ccccc1)[C@H](O)CN1C[C@H]2CCCC[C@H]2C[C@H]1C(=O)NC(C)(C)C` [Nelfinavir], which “Binding to Mpro (MST), in words” value [1] is on record?
A: Its value is “do not bind Mpro effectively”.

Q: Which “Binding to Mpro (MST), in words” value [1] does the source give for `CC(C)c1nc(CN(C)C(=O)N[C@H](C(=O)N[C@@H](Cc2ccccc2)C[C@H](O)[C@H](Cc2ccccc2)NC(=O)OCc2cncs2)C(C)C)cs1` [RTV, ritonavir] here?
A: The value was “do not bind Mpro effectively”.

Source: publication PMC10093836, “Stabilization of the Dimeric State of SARS-CoV-2 Main Protease by GC376 and Nirmatrelvir” (International Journal of Molecular Sciences, 2023)
